Experiments:
[1] = test system: bile leakage from punctured gall bladder; test: bile leakage occlusion in a porcine gall bladder needle puncture model; assay type: in vivo; settings: 2.5% w/v RADA16
Method: (§1) The objective of this study was to evaluate a self-assembling peptide solution (RADA16 in the form of PuraMatrix™ peptide hydrogel by 3-D Matrix, LTD.) as a bile leakage occlusion material in a porcine model. A histopathology assessment was also performed.
On the day of testing, an animal was sedated and prepared for surgery. A bile leakage model was prepared by puncturing needle punctures, using a 20G injection needle in the gall bladder of the test subject, as shown in FIG. 1A.
Subsequent to applying the self-assembling peptide solution, a bile leakage occlusion was confirmed at 1 minute, 20 seconds, as shown in FIG. 1D.
It was determined that 0.5 mL of the peptide solution was used to achieve the bile leakage occlusion of the needle puncture in the gallbladder.

[2] = test system: gallbladder bile leakage occlusion site; test: histopathology assessment (H&E) of the bile leakage occlusion site; assay type: in vivo, porcine; settings: gallbladder fixed in formalin after occlusion with 2.5% w/v RADA16
Method: as §1
After bile leakage occlusion was achieved, the gallbladder was fixed in formalin and the H&E-stained pathological specimen was made at the bile leakage occlusion site.

Arg-Ala-Asp-Ala-Arg-Ala-Asp-Ala-Arg-Ala-Asp-Ala-Arg-Ala-Asp-Ala (RADARADARADARADA) [RADA16, self-assembling peptide; 1 and 2.5 w/v percent aqueous solutions available as PuraMatrix peptide hydrogel by 3-D Matrix]
volume of peptide solution used to achieve the bile leakage occlusion of the needle puncture ([1]; 20G needle puncture in the gallbladder, porcine model): 0.5 mL | secondary bile leakage after excess hydrogel was irrigated from the site ([1]; checked at 3 minutes, porcine gall bladder puncture): absence of a secondary bile leakage was confirmed | histopathological finding at bile leakage occlusion site (H&E-stained specimen, FIG. 2) [2]: occluded the bile leakage site

Source: patent US20160030628A1, “TREATMENT FOR BILE LEAKAGE” (3-D MATRIX, LTD, priority 2013, published 2016)
